According to patent US20230241232A1, “Size-Dependent Brain and Lymphatic Distribution of Macromolecular Drug Delivery Platform” (The United States of America, As Represented by the …, priority 2020, published 2023):

Target: T1, scavenger receptor A (Mus musculus, UniProt P30204)
T1 construct: endogenous in cells; host or cells: Raw 264.7 macrophages
T1 sequence (P30204 1-458): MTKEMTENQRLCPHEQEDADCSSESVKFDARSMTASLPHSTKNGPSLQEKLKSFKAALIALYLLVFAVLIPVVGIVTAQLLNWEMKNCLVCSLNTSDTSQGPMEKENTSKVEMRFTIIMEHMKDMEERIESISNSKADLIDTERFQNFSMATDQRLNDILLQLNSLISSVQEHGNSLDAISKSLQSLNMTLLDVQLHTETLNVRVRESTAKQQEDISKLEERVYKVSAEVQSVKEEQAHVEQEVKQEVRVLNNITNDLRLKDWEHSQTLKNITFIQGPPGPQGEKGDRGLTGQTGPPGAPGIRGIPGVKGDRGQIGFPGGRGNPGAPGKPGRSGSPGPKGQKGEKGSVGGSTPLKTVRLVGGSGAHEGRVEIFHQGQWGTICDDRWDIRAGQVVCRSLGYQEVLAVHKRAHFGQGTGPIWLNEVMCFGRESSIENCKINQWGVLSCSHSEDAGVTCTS
Experiment: Competitive inhibition of polymer-488 cell uptake by poly I / poly C in Raw 264.7 macrophages
Assay type: cell-based
Conditions: for inhibition of polymer-488 fluorescence (% control): Raw 264.7 cells, various inhibitor concentrations, polymer-488 constant, 37° C. 3 hours, FIG. 4; for inhibition of scavenger receptor interaction of polymer-488 (fluorescence): Raw 264.7 macrophages, various concentrations of polymer-488, with or without inhibitor, FIG. 3
Experimental: The fluorescently labelled poly(L-lysine succinylated) was also tested for cell uptake in a macrophage cell line Raw 264.7 in the presence of competitive inhibitors and relevant controls. […] At higher concentrations of polymer-488, fluorescence is seen due to competing off the poly I.
In a follow up study, cells were treated with various concentrations of either poly I or poly C while polymer-488 concentration remained constant. In this study, Raw 264.7 cells were incubated overnight at 400,000 cells/mL. The cells were then treated with various concentrations of polymer-488 and either 200 μg/mL poly I, 200 μg/mL poly C, or no inhibitor. The cells were incubated at 37° C. for 3 hours, washed 3 times with media, and fluorescence measured.

Substance	inhibition of polymer-488 fluorescence (% control)	inhibition of scavenger receptor interaction of polymer-488 (fluorescence)
polycytidylic acid [poly C]	virtually no inhibition of fluorescence	not with poly C
polyinosinic acid [poly I]	dose-dependent inhibition	inhibition of scavenger receptor interaction
